SMILES	melting point [°C]
CCOC(=O)C1=C(C)NC(C)=C(C(=O)OCCSC(C)=O)C1c1cccc([N+](=O)[O-])c1 (stereo unspecified)	98 to 101
CCN(CC)CCCCC(=O)c1ccc2c(c1)C(=O)c1cc(C(=O)CCCCN(CC)CC)ccc1-2	108 to 110
OC(C=C(Cl)Cl)(Cn1cncn1)c1ccc(Cl)cc1 (stereo unspecified)	95 to 99
Cc1cc(-c2cc(C(F)(F)F)nc(-n3cnc(-c4ccc(S(N)(=O)=O)s4)c3)n2)ccc1C(F)(F)F	260
CN(C)C(=O)N=NC(=O)N(C)C	121 to 122
OCCCc1cccc(OCc2coc(/C=C/c3ccccc3)n2)c1	57 to 58
Cc1nc2cnccc2n1-c1ccc(Cn2c(=O)sc3ccccc32)cc1	198 to 201
CCCCCC(CC(=O)O)c1ccc(OC)cc1OC (single isomer, unassigned; (+))	51 to 52
COC(=O)N[C@@H](Cc1ccccc1)C(=O)CCl	121 to 122
CCn1c2ccccc2c2cc(NC(=O)c3c(C)cccc3C)ccc21	192 to 193
O=C(O)CCCc1cc2cc(Cl)ccc2n1S(=O)(=O)c1ccc2c(c1)CCN2	203
CC[C@@H]1O[C@](C#CC2CC2)(C(F)(F)F)c2c(ccc(F)c2F)NC1=O (relative stereo)	180 to 181
O=C(Oc1ccccc1)N1C(C2=COc3ccccc3O2)=COc2cccnc21	142
COC(=O)c1c(N(CC(C)C)CC(C)C)cccc1S(=O)(=O)NC(=O)Nc1nc(OC)cc(OC)n1	166 to 167
O=[N+]([O-])c1cc(-n2ccnc2)ccc1Sc1cccc2cnccc12	187 to 189
CCOc1c(NC(C)(C)C)c(=O)c1=O	80 to 82
O=C(CCc1ccccc1)c1c(O)c2cccnc2n(-c2ccccc2)c1=O	233 to 234
CCS(=O)(=O)c1ccc2cc(C(C)=O)ccc2c1	133
CCOC(=O)C(=O)CC(=O)C(=CN(C)C)c1ccccc1	110
Nc1cc(=O)n(Cc2ccc3ccccc3c2)[nH]1	156 to 157
N#CN=C(NCCSCc1ccccn1)NCCSCc1ccccn1	78 to 80
CCCCNc1ccn2ncc(Br)c2n1	94 to 95
O=c1oc(-c2ccccc2)cc(O)c1SCc1ccc2c(c1)OCO2	162 to 164
CCOC(=O)c1nc2c(C)nn(CC)c2nc1OCCC(C)C	59 to 61

SMILES	melting point [°C]
Cc1ccc(S(=O)(=O)OCC(C)O)cc1 (racemic)	49.5 to 50
CN1C(=O)[C@H](NC(=O)/C=C/c2ccc(Br)cc2)N=C(c2ccccc2)c2ccccc21	121 to 124
CC(=O)C1CCC2C3CCC4CC(C(C(=O)O)C(=O)O)CCC4(C)C3CCC12C (stereo unspecified)	214 to 215
Cc1c(N2CC(O)C2)c(F)cc2c(=O)n(N)c(=O)n(C3CC3)c12	212 to 214
CO[C@@H](Cc1ccc(OCCc2nc(-c3ccc(C(F)(F)F)cc3)oc2C)c2ccsc12)C(=O)O	173 to 175
O=C(NCCO)c1cccc(-c2ccc3ccn(Cc4ccc(Cl)cc4Cl)c3c2)c1	124 to 125
C=CC(=O)Nc1cccc(OC(=O)NCCCCCCCCCCCCCCCCCC)c1	124 to 126
CCOC(=O)c1ccc(NC(=O)C=C(c2ccc(Cl)cc2)c2ccc(Cl)cc2)cc1	207 to 209
CCC(=O)C(=CN(C)C)Oc1cc(Cl)cc(Cl)c1	96 to 97
Oc1ccc(Nc2nncc3ccccc23)cc1	245 to 247
CNc1n[nH]c(=O)n1NC	135 to 137
CCCCCCc1ccc(-c2ccc(-c3ncc(C(=O)OCC)c(O)n3)cc2)cc1	91.6 to 91.9
O=C(O)c1c(O)c(-c2ccc(-c3ccccc3)cc2)nc2c(Cl)cc(Cl)cc12	215 to 217
COC(=O)c1sccc1C(C)=O	59 to 60
C#Cc1cc(Oc2cnc(N)nc2N)c(C#C)cc1OC	163 to 164
CSc1nc(=O)n(-c2ccccc2F)c(=O)[nH]1	196 to 199
CCCO[C@@H](C)C(=O)Oc1ccc(C(=O)O)cc1	84
CCNC(=O)ON=C1CCOc2ccc(OC)cc21	97 to 98
COC(=O)N1c2cc(OC)c(OC)cc2C(=O)CC1C (stereo unspecified)	156 to 158
C[C@@]1(C=O)S[C@@H]2CC(=O)N2[C@H]1C(=O)OC(c1ccccc1)c1ccccc1	112 to 113
CCC(=O)Nc1c(C(=O)c2cc(Cl)ccc2[N+](=O)[O-])[nH]c2cc(Cl)ccc12	245 to 246
CC1(C)Cc2sccc2C(NC(N)=O)C1 (stereo unspecified)	174 to 178
Cc1csc(C2=C(c3ccc(S(C)(=O)=O)cc3)CCC2)c1	138 to 139
O=C(c1ccc2n1Cc1ccccc1N(C(=O)c1ccc(-c3cccc4ccccc34)cc1)C2)N(CCO)CCO	221 to 224

SMILES	melting point [°C]
CCOC(=O)C1=C(C)N(C(C)=O)C(c2csc(C)n2)=NC1c1cccc(OC)c1 (stereo unspecified)	114 to 116
O=C1NC(=O)C(Cc2ccc(OCCc3c[nH]c4ccccc34)cc2)S1 (stereo unspecified)	42.6 to 44.5
CCCNCc1cnc(-c2ncn3c2CN(C)C(=O)c2cc(F)ccc2-3)o1	134 to 136
CC1=CC(=O)C(C(=O)C=Cc2cccs2)C(=O)O1 (stereo unspecified)	162 to 164
CC(C)(Cc1ccc(OCC(=O)O)cc1)NS(=O)(=O)c1ccc(Cl)cc1	177 to 178
CC(C)(Cc1c[nH]c2ccc(Br)cc12)[N+](=O)[O-]	106 to 109
CCCc1nc2c(N)nc3ccccc3c2n1CCS(C)(=O)=O	212 to 214
CC(C)(C)C(=O)N[C@@H](CS)C(=O)O	140
Cc1nc2c3c(c(C(=O)O)cc2n1C)CCC(c1ccccc1)N3 (stereo unspecified)	325 to 326
COc1cc(C=CC=O)ccc1OC(C)C	93 to 94
COC(=O)c1nc2cccc(C(F)(F)F)c2c(O)c1C(=O)OC	180 to 182
OCCCn1cc(-c2cc3nccnc3[nH]2)c2ccccc21	220 to 221
CC(=O)Nc1cccc(/C=C/C(=O)N2CC(CCl)c3c2cc(NC(=O)OCC2c4ccccc4-c4ccccc42)c2ccccc32)c1 (stereo unspecified)	208 to 209
COc1ccc(-c2nc(Sc3cccc(OC)c3)[nH]c2-c2ccc(OC)cc2)cc1	101
C[C@H](Nc1ncnc2[nH]cnc12)c1oc2ccc(F)cc2c(=O)c1-c1cccc(F)c1	194 to 197
Cc1nn(C(C)C(=O)N(C)C)c(C)c1-c1ccccc1 (stereo unspecified)	122 to 124
COc1ccc(C2Sc3c(ccc4ccccc34)N(CCN(C)C)C(=O)C2OC)cc1 (stereo unspecified)	118 to 120
NS(=O)(=O)c1ccc(-c2cc(-c3nc(-c4ccc(Cl)cc4)cc(C(F)(F)F)n3)ccn2)s1	290
Cc1cc(CC=CCc2cc(C)c(O)c(C(C)(C)C)c2)cc(C(C)(C)C)c1O	99 to 106
CCc1c(OC)nc2nc(-c3nc(C)no3)cn2c1C	204 to 205
CC(C)n1c(=O)on(C(=O)n2oc(=O)n(C(C)C)c2=O)c1=O	150
COc1ccc(Cc2nc(C)c[nH]2)cc1	108 to 109

Now from value to compound:

melting point [°C]	SMILES
55 to 57	Clc1c(OCC2CO2)cccc1N1CCCCC1 (stereo unspecified)
104 to 106	Cc1ccc(S(=O)(=O)OC2CCc3c(c4ccccc4n3C)C2)cc1 (stereo unspecified)
158 to 160	COc1ccccc1C(=O)Nc1ccc(N2CCOCC2)cc1C(C)=O
199 to 202	CC(=O)NCC1CN(c2cc(F)c(N3CCN(C(=O)COC(=O)c4ccc(N(C)C)cc4)CC3)c(F)c2)C(=O)O1 (stereo unspecified)
163 to 166	CC(C)(C)OC(=O)NCCc1c[nH]c2ccc(Oc3ccccc3)c(Cl)c12
277 to 280	C=C(C)C(=O)NNc1ccnc2c(NC(=O)c3c(Cl)cccc3Cl)cccc12
71 to 73	COc1cccc(-c2cn3cccc(C=O)c3n2)c1
190 to 192	CCOCCN(C)c1ccc(-c2ccc3c(c2)C=C(C(=O)Nc2ccc(CN(C)C4CCOCC4)cc2)CCS3(=O)=O)cc1
49 to 50	CCCc1nc(N2CCOCC2)nc(N(CCOC(C)=O)C(C)=O)n1
136 to 137	CCOC(=O)CN1C(=O)COc2cc(N)ccc21
184 to 186	COC(=O)c1nc2ccc(Cl)cc2n1Cc1ccccc1
143 to 144	COc1ccc(CCN(O)C(=O)C(N)=O)cc1OC
202 to 204	O=C1Nc2ccc(-c3ccc(F)c(Cl)c3)cc2C12CCCC2
157	O=C(O)C1=CCc2ccccc21
138 to 139	N#Cc1ccc(OCCC2CCN(c3cc(Cl)nnc3Cl)CC2)cc1
133 to 135	C=CCN(CC=C)c1nc(NC(=O)c2c(Cl)cccc2Cl)n2oc(=O)nc2n1

melting point [°C]	SMILES
109	COC(=O)CCCc1cc2nc(Cl)ccc2n1S(=O)(=O)c1cccc(Br)c1
170 to 172	Cc1[nH]cnc1CN1CCc2c(c3cccc(OCc4ccccc4)c3n2COCc2ccccc2)C1=O
81.2 to 82	CC(C)(O)COc1ccc(CCCO)c(Oc2ncc(C(F)(F)F)cc2Cl)c1
107 to 108	Cc1cccc(C)c1N1CCN(CCC2CN(C)C(=O)O2)CC1 (stereo unspecified)
> 270	N#CC1=C(C2CCN(C(=N)N)CC2)Nc2n[nH]cc2C1c1cccc2nonc12 (stereo unspecified)
202 to 205	COc1ccc2ncc3ncn(-c4ccccc4Cl)c3c2c1
99 to 101	O=Cc1cc([N+](=O)[O-])ccc1C1SCCCS1
218 to 220	C=Cn1cc(C(=O)O)c(=O)c2cc(F)c(N3CCOCC3)cc21
210	CCc1nc2c(N)nc3ccccc3c2n1CC1(O)CCCC1
98	CCOC(=O)C1=C(C)NC(COC(C)=O)=C(C(=O)OCC)C1c1ccccc1Cl (stereo unspecified)
82 to 83	O=C(CCC1C2CC3CC(C2)CC1C3)N1C(=O)OCC1Cc1ccccc1 (stereo unspecified)
100	CN(C)CCC1(CO)c2ccccc2N(C)c2ccc(Cl)cc21 (stereo unspecified)
189 to 190	CC(C)CCCC(C)C1CCC2=C3C(=O)CC4C(C)(C)C(OC(=O)c5ccccc5)CCC4(C)C3CCC21C (stereo unspecified)
> 250	N#Cc1ccc2c(c1)NC(=O)C(O)C2 (stereo unspecified)
145	O=C1NCCN1C1CCN(CCC2CS(=O)c3ccccc3O2)CC1 (stereo unspecified)

From a melting point compilation (Tetko et al.; mined from patent text by program, amines drawn as free bases though some values may be those of a salt)
